Results: patent publication US10420341B2, “Herbicidal phenylpyrimidines” (BASF SE, priority 2015, dated 2019)

Key:
ALOMY [1] = test: greenhouse pre-emergence herbicidal test; assay type: in vivo, Alopercurus myosuroides; conditions: pre-emergence method, application rate 500 g/ha, scale from 0 to 100
Excerpt: The seeds of the test plants were sown separately for each species. For the pre-emergence treatment, the active ingredients, which had been suspended or emulsified in water, were applied directly after sowing by means of finely distributing nozzles. The containers were irrigated gently to promote germination and growth and subsequently covered with transparent plastic hoods until the plants had rooted. This cover caused uniform germination of the test plants, unless this had been impaired by the active ingredients. Depending on the species, the plants were kept at 10-25° C. or 20-35° C., respectively. The test period extended over 2 to 4 weeks. During this time, the plants were tended, and their response to the individual treatments was evaluated. Evaluation was carried out using a scale from 0 to 100. 100 means no emergence of the plants, or complete destruction of at least the aerial moieties, and 0 means no damage, or normal course of growth. […] The plants used in the greenhouse experiments were of the following species: [table]

APESV = test: greenhouse pre-emergence herbicidal test; assay type: in vivo, Apera spica-venti; conditions: pre-emergence method, scale from 0 to 100
Summary of the method: (§1)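 Species-dependent temperatures of 10-25° C. or 20-35° C. were maintained for a 2 to 4 week test after pre-emergence nozzle application of compounds dispersed in water. Efficacy was scored 0-100, with 100 denoting no emergence or total aerial destruction.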

ECHCG [2] = test: greenhouse pre-emergence herbicidal test; assay type: in vivo, Echinocloa crus-galli; conditions: pre-emergence method, scale from 0 to 100
Summary of the method: as §1

ALOMY [3] = test: greenhouse post-emergence herbicidal test; assay type: in vivo, Alopercurus myosuroides; conditions: post-emergence method, scale from 0 to 100
Summary of the method: (§2)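 Test plants were grown to 3–15 cm height, depending on habit, then sprayed post-emergence with active ingredient suspended or emulsified in water. Plants were kept at 10–25 °C or 20–35 °C by species for 2 to 4 weeks. Damage was scored 0–100, where 100 is complete destruction of aerial parts and 0 is normal growth.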

ECHCG [4] = test: greenhouse post-emergence herbicidal test; assay type: in vivo, Echinocloa crus-galli; conditions: post-emergence method, scale from 0 to 100
Summary of the method: as §2

ABUTH = test: greenhouse post-emergence herbicidal test; assay type: in vivo, Abutilon theophrasti; conditions: post-emergence method, scale from 0 to 100
Excerpt: (§3) The seeds of the test plants were sown separately for each species. For the post-emergence treatment, the test plants were first grown to a height of 3 to 15 cm, depending on the plant habit, and only then treated with the active ingredients which had been suspended or emulsified in water. For this purpose, the test plants were either sown directly and grown in the same containers, or they were first grown separately as seedlings and transplanted into the test containers a few days prior to treatment. Depending on the species, the plants were kept at 10-25° C. or 20-35° C., respectively. The test period extended over 2 to 4 weeks. During this time, the plants were tended, and their response to the individual treatments was evaluated. Evaluation was carried out using a scale from 0 to 100. 100 means no emergence of the plants, or complete destruction of at least the aerial moieties, and 0 means no damage, or normal course of growth. […] The plants used in the greenhouse experiments were of the following species: [table]

AMARE = test: greenhouse post-emergence herbicidal test; assay type: in vivo, Amaranthus retroflexus; conditions: post-emergence method, scale from 0 to 100
Excerpt: as §3

POLCO = test: greenhouse post-emergence herbicidal test; assay type: in vivo, Polygonum convolvulus; conditions: post-emergence method, application rate 1000 g/ha, scale from 0 to 100
Excerpt: as §3

Cc1cccc(C)c1-c1cnc(C2CC2)nc1C(=O)O [example 162]
herbicidal activity against ALOMY (ALOMY [1]): very good (a very good herbicidal activity is given at values of at least 85)
herbicidal activity against APESV (APESV; application rate 500 g/ha): very good (a very good herbicidal activity is given at values of at least 85)
herbicidal activity against ECHCG (ECHCG [2]; application rate 500 g/ha): very good (a very good herbicidal activity is given at values of at least 85)
herbicidal activity against ALOMY (ALOMY [3]; application rate 500 g/ha): very good (a very good herbicidal activity is given at values of at least 85)
herbicidal activity against ECHCG (ECHCG [4]; application rate 500 g/ha): very good (a very good herbicidal activity is given at values of at least 85)

Cc1ccc(C)c(-c2cnc(N(C)C)nc2C(=O)O)c1 [example 129]
herbicidal activity against APESV (APESV; application rate 500 g/ha): very good (a very good herbicidal activity is given at values of at least 85)
herbicidal activity against ECHCG (ECHCG [2]; application rate 500 g/ha): good (A good herbicidal activity is given at values of at least 70)
herbicidal activity against ABUTH (ABUTH; application rate 500 g/ha): good (A good herbicidal activity is given at values of at least 70)

Cc1ccccc1-c1cnc(C2CCC2)nc1C(=O)O [example 263]
herbicidal activity against APESV (APESV; application rate 1000 g/ha): good (A good herbicidal activity is given at values of at least 70)
herbicidal activity against ABUTH (ABUTH; application rate 1000 g/ha): very good (a very good herbicidal activity is given at values of at least 85)
herbicidal activity against ECHCG (ECHCG [4]; application rate 1000 g/ha): very good (a very good herbicidal activity is given at values of at least 85)

COc1ccccc1-c1cnc(C(C)C)nc1C(=O)O [example 35]
herbicidal activity against APESV (APESV; application rate 1000 g/ha): very good (a very good herbicidal activity is given at values of at least 85)
herbicidal activity against ECHCG (ECHCG [2]; application rate 1000 g/ha): very good (a very good herbicidal activity is given at values of at least 85)
herbicidal activity against ABUTH (ABUTH; application rate 1000 g/ha): very good (a very good herbicidal activity is given at values of at least 85)

O=C(O)c1ccccc1-c1cnc(C2CC2)nc1C(=O)O [example 318]
herbicidal activity against ECHCG (ECHCG [2]; application rate 2000 g/ha): very good (a very good herbicidal activity is given at values of at least 85)
herbicidal activity against ABUTH (ABUTH; application rate 2000 g/ha): very good (a very good herbicidal activity is given at values of at least 85)

COC(=O)c1nc(C2CC2)ncc1-c1cc(F)ccc1Cl [example 203]
herbicidal activity against ALOMY (ALOMY [1]): very good (a very good herbicidal activity is given at values of at least 85)
herbicidal activity against APESV (APESV; application rate 500 g/ha): very good (a very good herbicidal activity is given at values of at least 85)
herbicidal activity against ECHCG (ECHCG [2]; application rate 500 g/ha): very good (a very good herbicidal activity is given at values of at least 85)
herbicidal activity against ALOMY (ALOMY [3]; application rate 500 g/ha): good (A good herbicidal activity is given at values of at least 70)
herbicidal activity against ECHCG (ECHCG [4]; application rate 500 g/ha): very good (a very good herbicidal activity is given at values of at least 85)

CCC(C)c1ncc(-c2ccccc2C)c(C(=O)O)n1 (stereo not shown) [example 41]
herbicidal activity against APESV (APESV; application rate 1000 g/ha): very good (a very good herbicidal activity is given at values of at least 85)
herbicidal activity against ABUTH (ABUTH; application rate 1000 g/ha): very good (a very good herbicidal activity is given at values of at least 85)
herbicidal activity against ECHCG (ECHCG [4]; application rate 1000 g/ha): good (A good herbicidal activity is given at values of at least 70)

COc1cc(C)c(-c2cnc(C3CC3)nc2C(=O)O)cc1C [example 169]
herbicidal activity against APESV (APESV; application rate 1000 g/ha): very good (a very good herbicidal activity is given at values of at least 85)
herbicidal activity against ABUTH (ABUTH; application rate 1000 g/ha): very good (a very good herbicidal activity is given at values of at least 85)
herbicidal activity against ECHCG (ECHCG [4]; application rate 1000 g/ha): good (A good herbicidal activity is given at values of at least 70)

COC(=O)c1nc(C2CC2)ncc1-c1cc(C)c(OC)cc1C [example 232]
herbicidal activity against APESV (APESV; application rate 1000 g/ha): very good (a very good herbicidal activity is given at values of at least 85)
herbicidal activity against ECHCG (ECHCG [2]; application rate 1000 g/ha): very good (a very good herbicidal activity is given at values of at least 85)
herbicidal activity against ABUTH (ABUTH; application rate 1000 g/ha): very good (a very good herbicidal activity is given at values of at least 85)
herbicidal activity against ECHCG (ECHCG [4]; application rate 1000 g/ha): very good (a very good herbicidal activity is given at values of at least 85)

CC(C)c1ncc(-c2ccccc2Cl)c(C(=O)O)n1 [example 32]
herbicidal activity against APESV (APESV; application rate 1000 g/ha): very good (a very good herbicidal activity is given at values of at least 85)
herbicidal activity against ECHCG (ECHCG [2]; application rate 1000 g/ha): very good (a very good herbicidal activity is given at values of at least 85)
herbicidal activity against ABUTH (ABUTH; application rate 1000 g/ha): very good (a very good herbicidal activity is given at values of at least 85)
herbicidal activity against AMARE (AMARE; application rate 1000 g/ha): good (A good herbicidal activity is given at values of at least 70)

O=C(O)c1nc(C2CC2)ncc1-c1ccc(F)cc1Cl [example 146]
herbicidal activity against ALOMY (ALOMY [1]): very good (a very good herbicidal activity is given at values of at least 85)
herbicidal activity against APESV (APESV; application rate 500 g/ha): very good (a very good herbicidal activity is given at values of at least 85)
herbicidal activity against ECHCG (ECHCG [2]; application rate 500 g/ha): very good (a very good herbicidal activity is given at values of at least 85)
herbicidal activity against ALOMY (ALOMY [3]; application rate 500 g/ha): very good (a very good herbicidal activity is given at values of at least 85)

CSc1ncc(-c2ccc(F)cc2C)c(C(=O)O)n1 [example 94]
herbicidal activity against ABUTH (ABUTH; application rate 1000 g/ha): good (A good herbicidal activity is given at values of at least 70)
herbicidal activity against ECHCG (ECHCG [4]; application rate 1000 g/ha): very good (a very good herbicidal activity is given at values of at least 85)
herbicidal activity against POLCO (POLCO): very good (a very good herbicidal activity is given at values of at least 85)

Cc1ccccc1-c1cnc(CC(C)C)nc1C(=O)O [example 40]
herbicidal activity against APESV (APESV; application rate 1000 g/ha): good (A good herbicidal activity is given at values of at least 70)
herbicidal activity against ABUTH (ABUTH; application rate 1000 g/ha): very good (a very good herbicidal activity is given at values of at least 85)
herbicidal activity against ECHCG (ECHCG [4]; application rate 1000 g/ha): good (A good herbicidal activity is given at values of at least 70)

CSc1ncc(-c2cccc(Cl)c2Cl)c(C(=O)O)n1 [example 90]
herbicidal activity against ABUTH (ABUTH; application rate 2000 g/ha): good (A good herbicidal activity is given at values of at least 70)
herbicidal activity against AMARE (AMARE; application rate 2000 g/ha): very good (a very good herbicidal activity is given at values of at least 85)
herbicidal activity against ECHCG (ECHCG [4]; application rate 2000 g/ha): very good (a very good herbicidal activity is given at values of at least 85)

COc1ncc(-c2cc(C)ccc2C)c(C(=O)O)n1 [example 54]
herbicidal activity against APESV (APESV; application rate 1000 g/ha): very good (a very good herbicidal activity is given at values of at least 85)
herbicidal activity against ECHCG (ECHCG [2]; application rate 1000 g/ha): very good (a very good herbicidal activity is given at values of at least 85)
herbicidal activity against ABUTH (ABUTH; application rate 1000 g/ha): good (A good herbicidal activity is given at values of at least 70)
herbicidal activity against ALOMY (ALOMY [3]; application rate 1000 g/ha): very good (a very good herbicidal activity is given at values of at least 85)
herbicidal activity against AMARE (AMARE; application rate 1000 g/ha): very good (a very good herbicidal activity is given at values of at least 85)

COC(=O)c1nc(C2CC2)ncc1-c1ccc(F)cc1Cl [example 207]
herbicidal activity against ALOMY (ALOMY [1]): very good (a very good herbicidal activity is given at values of at least 85)
herbicidal activity against APESV (APESV; application rate 500 g/ha): very good (a very good herbicidal activity is given at values of at least 85)
herbicidal activity against ECHCG (ECHCG [2]; application rate 500 g/ha): very good (a very good herbicidal activity is given at values of at least 85)
herbicidal activity against ALOMY (ALOMY [3]; application rate 500 g/ha): good (A good herbicidal activity is given at values of at least 70)

O=C(O)c1nc(C2CC2)ncc1-c1cccc(F)c1Cl [example 150]
herbicidal activity against APESV (APESV; application rate 1000 g/ha): very good (a very good herbicidal activity is given at values of at least 85)
herbicidal activity against ECHCG (ECHCG [2]; application rate 1000 g/ha): very good (a very good herbicidal activity is given at values of at least 85)
herbicidal activity against ABUTH (ABUTH; application rate 1000 g/ha): very good (a very good herbicidal activity is given at values of at least 85)
herbicidal activity against ALOMY (ALOMY [3]; application rate 1000 g/ha): very good (a very good herbicidal activity is given at values of at least 85)

CCc1ncc(-c2ccccc2OC)c(C(=O)O)n1 [example 16]
herbicidal activity against APESV (APESV; application rate 2000 g/ha): very good (a very good herbicidal activity is given at values of at least 85)
herbicidal activity against ECHCG (ECHCG [2]; application rate 2000 g/ha): very good (a very good herbicidal activity is given at values of at least 85)
herbicidal activity against ABUTH (ABUTH; application rate 2000 g/ha): very good (a very good herbicidal activity is given at values of at least 85)
